Several values for one entry are separate records, joined by “and”; a condition that tells them apart may be missing. Equal values may be shown once. Read-outs that look alike come from different tables or passages of the source.
Experiments:
SERT [1] = experiment: Baboon PET imaging: brain uptake, kinetic analysis and SERT parameters; format: in vivo; conditions: for Kp: male, baboon, brain, intravenous
How it was run: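 Two isoflurane-anaesthetised adult male baboons, each radioligand tested twice (test-retest); i.v. bolus, 91 min 3D emission scan with arterial sampling, MRI-defined regions. Brain uptake as % ID g^−1, with peak time and washout; VT from one-tissue compartment model (K1/k2) using arterial plasma input.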

SERT [2] = biological target: T1, SERT (Homo sapiens, UniProt P31645); conditions: cited from earlier work
T1 construct: consistent with values previously measured in six healthy humans (Parsey et al., 2000); host or cells: living human brain (PET, values quoted from Parsey et al. 2000, Ginovart et al. 2001)

[3] = humans, cited from earlier work
[4] = BP = VT ROI − VT CER, baboons, mean ± SD of four experiments
[5] = Mean ± SD of four experiments in two baboons
[6] = baboons, mean ± SD of four experiments
[7] = last scan 90 minutes, baboons, mean ± SD of four experiments
[8] = one-tissue compartment model, baboons, mean ± SD of four experiments

T1 sequence (P31645 whole entry): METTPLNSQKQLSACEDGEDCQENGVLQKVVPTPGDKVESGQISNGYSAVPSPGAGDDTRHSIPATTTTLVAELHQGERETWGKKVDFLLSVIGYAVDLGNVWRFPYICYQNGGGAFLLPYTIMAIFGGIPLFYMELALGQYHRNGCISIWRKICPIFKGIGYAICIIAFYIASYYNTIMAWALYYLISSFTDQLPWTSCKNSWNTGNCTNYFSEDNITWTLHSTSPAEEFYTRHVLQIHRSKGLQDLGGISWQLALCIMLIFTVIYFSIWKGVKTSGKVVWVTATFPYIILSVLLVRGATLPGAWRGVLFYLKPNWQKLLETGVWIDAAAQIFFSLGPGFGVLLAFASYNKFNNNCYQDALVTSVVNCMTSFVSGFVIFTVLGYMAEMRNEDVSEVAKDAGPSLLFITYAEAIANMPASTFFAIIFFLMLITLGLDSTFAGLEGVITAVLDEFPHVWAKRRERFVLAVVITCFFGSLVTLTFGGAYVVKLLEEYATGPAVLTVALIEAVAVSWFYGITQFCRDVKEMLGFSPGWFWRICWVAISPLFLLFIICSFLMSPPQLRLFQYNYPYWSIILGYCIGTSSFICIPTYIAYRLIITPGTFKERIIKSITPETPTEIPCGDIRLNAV

Q: What does the source list for CN(C)Cc1ccccc1Sc1ccc(C#N)cc1N [[^11C]DASB]?
A: Binding potential Cingulate Cortex (SERT [1]; [4]): 3.8 ± 0.8 mL/g; Binding potential Hippocampus (SERT [1]; [4]): 10.0 ± 1.3 mL/g; Binding potential Midbrain (SERT [1]; [4]): 29.1 ± 4.0 mL/g; Binding potential Occipital Cortex (SERT [1]; [4]): 2.0 ± 1.1 mL/g; Binding potential Striatum (SERT [1]; [4]): 14.4 ± 1.5 mL/g; Binding potential Temporal Cortex (SERT [1]; [4]): 5.1 ± 1.9 mL/g; Binding potential Thalamus (SERT [1]; [4]): 30.2 ± 4.9 mL/g; Equilibrium specific to non-specific partition coefficient (V3″) Cingulate Cortex (SERT [1]; Baboon A, single experiment): 0.26 and 0.25; Equilibrium specific to non-specific partition coefficient (V3″) Hippocampus (SERT [1]; Baboon A, single experiment): 0.48 and 0.65; Equilibrium specific to non-specific partition coefficient (V3″) Midbrain (SERT [1]; Baboon A, single experiment): 1.46 and 1.66; Equilibrium specific to non-specific partition coefficient (V3″) Occipital Cortex (SERT [1]; Baboon A, single experiment): 0.15 and 0.18; Equilibrium specific to non-specific partition coefficient (V3″) Striatum (SERT [1]; Baboon A, single experiment): 0.72 and 0.89; Equilibrium specific to non-specific partition coefficient (V3″) Temporal Cortex (SERT [1]; Baboon A, single experiment): 0.34 and 0.42; Equilibrium specific to non-specific partition coefficient (V3″) Thalamus (SERT [1]; Baboon A, single experiment): 1.42 and 1.68; Equilibrium specific to non-specific partition coefficient (V3″) Cingulate Cortex (SERT [1]; Baboon B, single experiment): 0.21 and 0.16; Equilibrium specific to non-specific partition coefficient (V3″) Hippocampus (SERT [1]; Baboon B, single experiment): 0.62 and 0.54; Equilibrium specific to non-specific partition coefficient (V3″) Midbrain (SERT [1]; Baboon B, single experiment): 1.64 and 1.96; Equilibrium specific to non-specific partition coefficient (V3″) Striatum (SERT [1]; Baboon B, single experiment): 0.83 and 0.87; Equilibrium specific to non-specific partition coefficient (V3″) Temporal Cortex (SERT [1]; Baboon B, single experiment): 0.21; Equilibrium specific to non-specific partition coefficient (V3″) Thalamus (SERT [1]; Baboon B, single experiment): 1.79 and 2.07; Equilibrium specific to non-specific partition coefficient (V3″) Cingulate Cortex (SERT [1]; [5]): 0.22 ± 0.04; Equilibrium specific to non-specific partition coefficient (V3″) Hippocampus (SERT [1]; [5]): 0.58 ± 0.08; Equilibrium specific to non-specific partition coefficient (V3″) Midbrain (SERT [1]; [5]): 1.68 ± 0.21; Equilibrium specific to non-specific partition coefficient (V3″) Occipital Cortex (SERT [1]; [5]): 0.11±0.06; Equilibrium specific to non-specific partition coefficient (V3″) Striatum (SERT [1]; [5]): 0.83 ± 0.08; Equilibrium specific to non-specific partition coefficient (V3″) Temporal Cortex (SERT [1]; [5]): 0.29 ± 0.10; Equilibrium specific to non-specific partition coefficient (V3″) Thalamus (SERT [1]; [5]): 1.74 ± 0.27; K1, average of all regions and all animals (SERT [1]; baboons): 1.21 ± 0.22 mL/g/min; k2, average of all regions and all animals (SERT [1]; baboons): 0.047 ± 0.018 min⁻¹; V3″ expressed in percentage of [^11C]McN 5652 V3″ (SERT [1]; baboons, combining all regions): 142±29%; Mean regional peak uptake time (SERT [1]; baboons, mean of all regions): 19 ± 9 min; Mean regional wash-out (% decrease between peak time and last scan) (SERT [1]; baboons, mean of all regions): 52±19%; Regional uptake peak time Cerebellum (SERT [1]; [6]): 12 ± 5 min; Regional uptake peak time Cingulate Cortex (SERT [1]; [6]): 14 ± 3 min; Regional uptake peak time Hippocampus (SERT [1]; [6]): 22 ± 10 min; Regional uptake peak time Midbrain (SERT [1]; [6]): 27 ± 13 min; Regional uptake peak time Occipital Cortex (SERT [1]; [6]): 16 ± 4 min; Regional uptake peak time Striatum (SERT [1]; [6]): 22 ± 10 min; Regional uptake peak time Temporal Cortex (SERT [1]; [6]): 19 ± 5 min; Regional uptake peak time Thalamus (SERT [1]; [6]): 24 ± 10 min; Total brain uptake at 45 min (SERT [1]; baboons, region encompassing the entire brain): 0.013±0.002 % ID g^−1; Regional activity wash-out: % decrease from peak to last scan, Cerebellum (SERT [1]; [7]): 68 ± 14%; Regional activity wash-out: % decrease from peak to last scan, Cingulate Cortex (SERT [1]; [7]): 64 ± 10%; Regional activity wash-out: % decrease from peak to last scan, Hippocampus (SERT [1]; [7]): 46 ± 19%; Regional activity wash-out: % decrease from peak to last scan, Midbrain (SERT [1]; [7]): 32 ± 19%; Regional activity wash-out: % decrease from peak to last scan, Occipital Cortex (SERT [1]; [7]): 65 ± 11%; Regional activity wash-out: % decrease from peak to last scan, Striatum (SERT [1]; [7]): 49 ± 18%; Regional activity wash-out: % decrease from peak to last scan, Temporal Cortex (SERT [1]; [7]): 58 ± 13%; Regional activity wash-out: % decrease from peak to last scan, Thalamus (SERT [1]; [7]): 36 ± 16%; Kp (SERT [1]; cingulate cortex, one-tissue compartment model, baboons, mean ± SD of four experiments, read-out: VT Cingulate Cortex): 21.1 ± 0.9; Kp (SERT [1]; hippocampus, one-tissue compartment model, baboons, mean ± SD of four experiments, read-out: VT Hippocampus): 27.3 ± 1.4; Kp (SERT [1]; midbrain, one-tissue compartment model, baboons, mean ± SD of four experiments, read-out: VT Midbrain): 46.4 ± 4.3; Kp (SERT [1]; occipital cortex, one-tissue compartment model, baboons, mean ± SD of four experiments, read-out: VT Occipital Cortex): 19.3 ± 1.5; Kp (SERT [1]; striatum, one-tissue compartment model, baboons, mean ± SD of four experiments, read-out: VT Striatum): 31.7 ± 1.7; Kp (SERT [1]; temporal cortex, one-tissue compartment model, baboons, mean ± SD of four experiments, read-out: VT Temporal Cortex): 22.5 ± 2.1; Kp (SERT [1]; thalamus, one-tissue compartment model, baboons, mean ± SD of four experiments, read-out: VT Thalamus): 47.5 ± 5; K1 Cerebellum (SERT [1]; [8]): 1.36 ± 0.24 mL/g/min; K1 Cingulate Cortex (SERT [1]; [8]): 1.26 ± 0.09 mL/g/min; K1 Hippocampus (SERT [1]; [8]): 0.98 ± 0.20 mL/g/min; K1 Midbrain (SERT [1]; [8]): 1.23 ± 0.20 mL/g/min; K1 Occipital Cortex (SERT [1]; [8]): 1.15 ± 0.24 mL/g/min; K1 Striatum (SERT [1]; [8]): 1.27 ± 0.21 mL/g/min; K1 Temporal Cortex (SERT [1]; [8]): 1.05 ± 0.09 mL/g/min; K1 Thalamus (SERT [1]; [8]): 1.35 ± 0.29 mL/g/min; K2 Cerebellum (SERT [1]; [8]): 0.078 ± 0.013 min⁻¹; K2 Cingulate Cortex (SERT [1]; [8]): 0.060 ± 0.004 min⁻¹; K2 Hippocampus (SERT [1]; [8]): 0.036 ± 0.006 min⁻¹; K2 Midbrain (SERT [1]; [8]): 0.027 ± 0.005 min⁻¹; K2 Occipital Cortex (SERT [1]; [8]): 0.059 ± 0.011 min⁻¹; K2 Striatum (SERT [1]; [8]): 0.040 ± 0.007 min⁻¹; K2 Temporal Cortex (SERT [1]; [8]): 0.047 ± 0.004 min⁻¹; K2 Thalamus (SERT [1]; [8]): 0.028 ± 0.006 min⁻¹; VT Cerebellum (VT CER, nonspecific distribution volume) (SERT [1]; [8]): 17.3 ± 0.5 mL/g; Data acquisition required to derive stable VT values in all regions (SERT [2]; humans (Ginovart et al., 2001)): no more than 80 minutes; V3″ occipital cortex (SERT [2]; humans, literature): 0.51±0.09; VT CER (cerebellum distribution volume) (SERT [2]; humans, literature): 11.8 ± 1.5 mL/g; Parent fraction in plasma at 30 minutes ([3]; literature): 40±7%; f1 (plasma free fraction) ([3]; n=5 (Ginovart et al., 2001)): 11.0±1.2%
